Assay results taken from patent US20160235727A1, “NOVEL PYRROLIDINE DERIVED BETA 3 ADRENERGIC RECEPTOR AGONISTS” (Merck Sharp & Dohme Corp., priority 2013, published 2016).

Target: T1, human β3-AR (Homo sapiens, UniProt P13945)
T1 construct: expressed in transfected cells; host or cells: CHO (Chinese hamster ovary) cells, stably transfected
Assay: cAMP functional agonist assay (LANCE TR-FRET) in CHO cells expressing cloned human β3-AR
Type: cell-based
Conditions: for EC50: CHO cells stably expressing cloned human β3-adrenoceptor, cAMP release, read-out: Human β3-AR Agonism EC50; for Human β3-AR Agonist Activity (%): percent maximum activation relative to isoproterenol; for Fold drop in potency vs. 2-chloropyridine analog: EC50 of comparative example divided by EC50 of corresponding 2-chloropyridine compound
Method: The ability of compounds to activate the human β3-AR receptor was measured using a CHO cell line stably expressing the cloned human β1-, β2-, and β3-adrenoceptors (β-AR). […] To quantify the amount of cAMP released following β-AR activation, the LANCE cAMP kit (Perking Elmer), a time-resolved fluorescence resonance energy transfer immunoassay, was used. Compounds were serially diluted in DMSO and an aliquot added to either 384-well or 96-well micro titer plates in assay buffer (5 mM HEPES, 0.1% BSA in Hank's Balanced Salt Solution). […] Following 30 min incubation at room temperature, the cells were lysed by the addition of LANCE detection buffer which contained a europium-labeled cAMP tracer. Fluorescence was measured following one hour incubation at room temperature using a Perking Elmer Envision plate reader, exciting at 340 nm and measuring emission at 615 nm and 665 nm. For each assay, a cAMP standard curve was included and used to convert fluorescence readings directly to cAMP amounts. The values were then normalized to isoproterenol, a known full agonist of β-AR, which was titrated in every assay and the EC50 determined using a custom in-house data analysis package. Along with EC50, the percent maximum activation relative to isoproterenol is reported.
The cAMP production is measured using a homogenous time-resolved fluorescence resonance energy transfer immunoassay (LANCE™, Perkin Elmer) according to the manufacture's instructions. Chinese hamster ovary (CHO) cells, stably transfected with the cloned β-adrenergic receptor (β1, β2 or β3) are harvested after 3 days of subculturing. Harvesting of cells is done with Enzyme-free Dissociation Media (Specialty Media). Cells are then counted and resuspended in assay buffer (Hank's Balanced salt solution supplemented with 5 mM HEPES, […]) containing a phosphodiesterase inhibitor (IBMX, 0.6 mM). The reaction is initiated by mixing 6,000 cells in 6 μL with 6 μL Alexa Fluor labeled cAMP antibody (LANCE™ kit) which is then added to an assay well containing 12 μL of compound (diluted in assay buffer to 2× final concentration). The reaction proceeds for 30 minutes at RT and is terminated by the addition of 24 ul detection buffer (LANCE™ kit). The assay plate is then incubated for 1 h at RT and time-resolved fluorescence measured on a Perkin Elmer Envision reader or equivalent. The unknown cAMP level is determined by comparing fluorescence levels to a cAMP standard curve.
The non-selective, full agonist β-adrenergic ligand isoproterenol is used at all three receptors to determine maximal stimulation. […] Data are analyzed using Microsoft Excel and Graphpad Prism or an internally developed data analysis software package. […]

T1 sequence (P13945 whole entry): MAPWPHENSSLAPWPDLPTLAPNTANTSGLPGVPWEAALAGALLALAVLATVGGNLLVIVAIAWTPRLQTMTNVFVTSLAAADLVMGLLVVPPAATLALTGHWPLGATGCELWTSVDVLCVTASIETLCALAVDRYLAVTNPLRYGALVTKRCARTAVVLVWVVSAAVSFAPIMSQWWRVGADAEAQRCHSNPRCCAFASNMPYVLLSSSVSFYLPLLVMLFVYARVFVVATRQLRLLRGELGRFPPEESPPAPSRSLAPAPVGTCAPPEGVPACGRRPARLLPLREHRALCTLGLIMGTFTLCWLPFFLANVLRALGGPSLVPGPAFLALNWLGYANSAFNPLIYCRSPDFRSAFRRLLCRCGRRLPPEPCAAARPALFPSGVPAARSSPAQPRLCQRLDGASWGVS

| Structure (SMILES) | EC50 | Human β3-AR Agonist Activity (%) | Fold drop in potency vs. 2-chloropyridine analog |
| --- | --- | --- | --- |
| CN(Cc1n[nH]c2c1CCCC2)C(=O)c1ccc(C[C@@H]2CC[C@H]([C@H](O)c3ccc(Cl)nc3)N2)cc1 [Example 14-A, 4-(((2S,5R)-5-((R)-(6-chloropyridin-3-yl)(hydroxy)methyl)pyrrolidin-2-yl)methyl)-N-methyl-N-((4,5,6,7-tetrahydro-1H-indazol-3-yl)methyl)benzamide] | 3 nM | 108% | – |
| CN(Cc1n[nH]c2c1CCCC2)C(=O)c1ccc(C[C@@H]2CC[C@H]([C@H](O)c3cccnc3)N2)cc1 [Example 14-H, 4-(((2S,5R)-5-((R)-hydroxy(pyridin-3-yl)methyl)pyrrolidin-2-yl)methyl)-N-methyl-N-((4,5,6,7-tetrahydro-1H-indazol-3-yl)methyl)benzamide] | 55 nM | 101% | 19.5 fold |
| Cc1[nH]nc(CN(C)C(=O)c2ccc(C[C@@H]3CC[C@H]([C@H](O)c4ccc(Cl)nc4)N3)cc2)c1O [Example 15-A, 4-(((2S,5R)-5-((R)-(6-chloropyridin-3-yl)(hydroxy)methyl)pyrrolidin-2-yl)methyl)-N-((4-hydroxy-5-methyl-1H-pyrazol-3-yl)methyl)-N-methylbenzamide] | 1 nM | 94% | – |
| Cc1[nH]nc(CN(C)C(=O)c2ccc(C[C@@H]3CC[C@H]([C@H](O)c4ccccc4)N3)cc2)c1O [Example 15-B, 4-(((2S, 5R)-5-((R)-hydroxy(phenyl)methyl)pyrrolidin-2-yl)methyl)-N-((4-hydroxy-5-methyl-1H-pyrazol-3-yl)methyl)-N-methylbenzamide] | 5 nM | 112% | 5.9 fold |
| COc1c(CN(C)C(=O)c2ccc(C[C@@H]3CC[C@H]([C@H](O)c4ccc(Cl)nc4)N3)cc2)n[nH]c1C [Example 16-A, 4-(((2S,5R)-5-((R)-(6-chloropyridin-3-yl)(hydroxy)methyl)pyrrolidin-2-yl)methyl)-N-((4-methoxy-5-methyl-1H-pyrazol-3-yl)methyl)-N-methylbenzamide] | 2 nM | 102% | – |
| COc1c(C)n[nH]c1CN(C)C(=O)c1ccc(C[C@@H]2CC[C@H]([C@H](O)c3ccccc3)N2)cc1 [Example 16-B, 4-(((2S,5R)-5-((R)-hydroxy(phenyl)methyl)pyrrolidin-2-yl)methyl)-N-((4-methoxy-5-methyl-1H-pyrazol-3-yl)methyl)-N-methylbenzamide] | 10 nM | 101% | 6.2 fold |
| Cc1[nH]nc(CN(C)C(=O)c2ccc(C[C@@H]3CC[C@H]([C@H](O)c4ccc(Cl)nc4)N3)cc2)c1Cl [Example 17-A, N-((4-chloro-5-methyl-1H-pyrazol-3-yl)methyl)-4-(((2S,5R)-5-((R)-(6-chloropyridin-3-yl)(hydroxy)methyl)pyrrolidin-2-yl)methyl)-N-methylbenzamide] | 4 nM | 94% | – |
| Cc1n[nH]c(CN(C)C(=O)c2ccc(C[C@@H]3CC[C@H]([C@H](O)c4ccccc4)N3)cc2)c1Cl [Example 17-B, N-((4-chloro-5-methyl-1H-pyrazol-3-yl)methyl)-4-(((2S,5R)-5-((R)-hydroxy(phenyl)methyl)pyrrolidin-2-yl)methyl)-N-methylbenzamide] | 17 nM | 112% | 4.5 fold |
| C[C@H](c1nn(C)c(=O)o1)N(C)C(=O)c1ccc(C[C@@H]2CC[C@H]([C@H](O)c3ccc(Cl)nc3)N2)cc1 [Example 18-A, 4-(((2S,5R)-5-((R)-(6-chloropyridin-3-yl)(hydroxy)methyl)pyrrolidin-2-yl)methyl)-N-methyl-N—((R)-1-(4-methyl-5-oxo-4,5-dihydro-1,3,4-oxadiazol-2-yl)ethyl)benzamide] | 8 nM | 101% | – |
| C[C@H](c1nn(C)c(=O)o1)N(C)C(=O)c1ccc(C[C@@H]2CC[C@H]([C@H](O)c3ccccc3)N2)cc1 [Example 18-B, 4-(((2S,5R)-5-((R)-hydroxy(phenyl)methyl)pyrrolidin-2-yl)methyl)-N-methyl-N—((R)-1-(4-methyl-5-oxo-4,5-dihydro-1,3,4-oxadiazol-2-yl)ethyl)benzamide] | 68 nM | 105% | 8.6 fold |
| C[C@H](c1nn(C)c(=O)o1)N(C)C(=O)c1ccc(C[C@@H]2CC[C@H]([C@H](O)c3ccc(Cl)cc3)N2)cc1 [Example 18-G, 4-(((2S,5R)-5-((R)-(4-chlorophenyl)(hydroxy)methyl)pyrrolidin-2-yl)methyl)-N-methyl-N—((R)-1-(4-methyl-5-oxo-4,5-dihydro-1,3,4-oxadiazol-2-yl)ethyl)benzamide] | 13 nM | 101% | 1.7 fold |
| CC(C)[C@H](c1nn(C)c(=O)o1)N(C)C(=O)c1ccc(C[C@@H]2CC[C@H]([C@H](O)c3ccc(Cl)nc3)N2)cc1 [Example 19-A, 4-(((2S,5R)-5-((R)-(6-chloropyridin-3-yl)(hydroxy)methyl)pyrrolidin-2-yl)methyl)-N-methyl-N—((R)-2-methyl-1-(4-methyl-5-oxo-4,5-dihydro-1,3,4-oxadiazol-2-yl)propyl) benzamide] | 5 nM | 111% | – |
| CC(C)[C@H](c1nn(C)c(=O)o1)N(C)C(=O)c1ccc(C[C@@H]2CC[C@H]([C@H](O)c3ccccc3)N2)cc1 [Example 19-B, 4-(((2S,5R)-5-((R)-hydroxy(phenyl)methyl)pyrrolidin-2-yl)methyl)-N-methyl-N—((R)-2-methyl-1-(4-methyl-5-oxo-4,5-dihydro-1,3,4-oxadiazol-2-yl)propyl)benzamide] | 32 nM | 115% | 5.8 fold |
| CN(Cc1cccc(=O)[nH]1)C(=O)c1ccc(C[C@@H]2CC[C@H]([C@H](O)c3ccc(Cl)nc3)N2)cc1 [Example 20-A, 4-(((2S,5R)-5-((R)-(6-chloropyridin-3-yl)(hydroxy)methyl)pyrrolidin-2-yl)methyl)-N-methyl-N-((6-oxo-1,6-dihydropyridin-2-yl)methyl)benzamide] | 5 nM | 108% | – |
| CN(Cc1cccc(=O)[nH]1)C(=O)c1ccc(C[C@@H]2CC[C@H]([C@H](O)c3ccccc3)N2)cc1 [Example 20-B, 4-(((2S,5R)-5-((R)-hydroxy(phenyl)methyl)pyrrolidin-2-yl)methyl)-N-methyl-N-((6-oxo-1,6-dihydropyridin-2-yl)methyl)benzamide] | 9 nM | 103% | 2.1 fold |
